Experimental data published in patent US20210221791A1, “COMPOUNDS” (UNIVERSITETET I OSLO, priority 2016, published 2021).
Where “and” joins values, the source holds several entries; their conditions need not be identical. Identical values can stand only once. Entries after “also recorded” stand apart in the source; their conditions may differ. Counter-ions that a name gives are not always drawn. Like-named read-outs stand apart in the source and are kept apart here.

Key:
VIM-2 = VIM-2 (Escherichia coli, UniProt Q5U7L7); type: biochemical
Procedure: The eluent used was Chelex-treated HEPES 50 mM buffer, pH 7.5. […] In all experiments, 16 aliquots of 250 μL were taken from the PD-10 column runsout and enzyme activity was analysed. Enzyme activity was measured by adding Nitrocefin as a reporter substrate (final concentration of 50 μM).
To investigate if more extreme time-dependent and concentration-dependent conditions could restore enzyme activity, aliquots having final concentrations of 30 nM column-treated enzyme and 1000 μM Zn^2+ on ice and at room temperature over prolonged time.

[1] = system: resistant gram-negative MBL-based bacteria; assay: MICx: lowest adjuvant concentration giving carbapenem MIC ≤2 mg/L; type: cell-based; details: 25 mg/L Example 26; K66-45 and K34-7; meropenem and doripenem
[2] = system: P. stuartii harboring an MBL; assay: MIC of meropenem on strains harboring an MBL (Example 198); type: cell-based; details: P. stuartii (NDM)
[3] = system: Klebsiella pneumoniae strain 50752501 harbouring NDM-1; assay: In vivo infection study in neutropenic mice; set-up: species or system Klebsiella pneumoniae; host NMRI mice; details: for Score at sampling: sampling T = 5 h; for lower CFU levels compared to vehicle treatment: combination Example 26 (10-100 mg/kg) and meropenem 33 mg/kg
Procedure: The purpose of this study was to investigate the synergy between a typical example of the present invention and a state of art carbapenem in a clinically relevant multiresistant Gram-negative bacterial strain harboring a metallo-β-lactamase in the treatment of live mice infected with the bacterial strain.
The mice were rendered neutropenic by injecting 0.5 ml cyclophosphamide solution intraperitoneally 4 days (approximately 200 mg/kg) and 1 day (approximately 100 mg/kg) prior to inoculation.
Fresh overnight colonies from a 5% Horse Blood Agar plate were suspended and diluted in sterile saline to approximately and 10^7 CFU/ml. Mice were inoculated intraperitoneally with 0.5 ml of the suspension. Approximately ½ hr prior to inoculation, mice were treated orally with 45 μl neurophen (20 mg ibuprofen/ml corresponding to approximately 30 mg/kg) as a pain relief.
Mice were treated subcutaneously in the neck region with.
Colony counts were determined from blood and peritoneal fluid at 1 and 5 hrs post inoculation. […] The mice were sacrificed immediately after blood sampling and a total of 2 ml sterile saline was injected i.p. and the abdomen gently massaged before it was opened and fluid sampled with a pipette. Each sample was then 10 fold serial diluted in saline and 20-μl spots, ranging from undiluted to a 10^6 dilution, were applied on agar plates in duplicates. […] All agar plates were incubated 18-22 hrs at 35° C. in ambient air.

[4] = system: human serum albumin and α1-acid glycoprotein (AGP); details: 500 μM Example 26; HSA:AGP 24:1 up to 140 μM
Procedure: Enzymes in the kit are immobilized at a solid phase. […] Buffer without inhibitor was included as a control. After incubation, the suspensions were centrifuged and diluted 1:10 in 50 mM HEPES buffer pH 7.5 supplemented with 1 μM zinc^2+ and VIM-2 (final concentration 1 nM).

[5] = system: meropenem-resistant E. coli; assay: Checkerboard MIC assay of Example 26 and meropenem; type: cell-based; details: for some of the E. coli / K. pneumonia strains
Procedure: A checkerboard MIC assay was using the broth dilution method according to CLSI guidelines. […] Dilutions to 4 mg/ml was performed by adding+4.75 ml sterile saline to 0.25 ml of the stock solution, and dilutions to 512 μg/ml was performed by adding 10.9 ml MH-broth to the 4 mg/ml solution. Inoculums of bacterial strains as described in Table 4 were prepared by suspending fresh overnight colonies from 5% horse blood agar were to a turbidity of 0.5 McFarland and further diluted to 1×10^6 CFU/ml in MH-broth. Aliquots of 50 μl of MH-broth were added to each well of polystyrene microtiter plates. […] The plates were incubated at 35° C., 16-20 hours.

rH glyoxylase II = rH glyoxylase II (Homo sapiens, UniProt Q16775); assay: Interaction with zinc-containing human enzyme; type: biochemical; details: 62.5-500 μM, 30 min, 25° C., 0.4 ng/μL enzyme
Procedure: The initial reaction velocity was measured at 405 nm. EDTA was included as a representative example of the APC chelator class described above.

[6] = system: resistant clinical isolate of Klebsiella pneumoniae harboring NDM-1; assay: Time-kill study with meropenem; type: cell-based; details: Example 26 + 4 mg/L meropenem, irrespective of Example 26 concentration; stays below LOD for 30 hrs
Procedure: Mueller-Hinton broth (MHB) was warmed from fridge temperature cold. […] A sample of Example 26 was dissolved in DMSO.
The 96-well plates were prepared using a multi-channel pipette, adding […] PBS to columns 2-9, or the required number of dilutions needed in the experiment. Each Inoculum was prepared by picking a single colony from the fresh plate that was disperged into 1 mL MHB, the loop was agitated to ensure all the colony comes off the loop. The tube was Vortex mixed, and a 100 μL aliquot was taken from the tube into 9.9 mL of MHB into the media bottle. […] The procedure was repeated for as many samples needed in the study. Aliquots of 5 mL inoculum were transferred to as many media bottles as needed, e.g. 4 mg/L MEM, 4 mg/L MEM+50 μM test substance, 4 mg/L MEM+100 μM test substance. Then […] aliquots were taken from each culture and added to Column 1 on the 96 well plate, e.g. culture 1: 50 μl into A1, […] into B1 etc. for time point 0 h. Then […] MEM was added into each bottle, followed by the required amount of test substance. The bottles were mixed gently to avoid formation of bubbles, and incubated in a secondary container at 37° C. at 180 rpm. Finally, serial dilutions were performed using multi-channel pipette taking 30 μL for column 1, adding to column 2, mixing well, repeating from column 2 to 3 with clean pipette tips.

[7] = system: K. pneumoniae K66-45 (NDM-1); assay: Microbroth dilution MIC of carbapenem with/without inhibitor; type: cell-based; details: K. pneumoniae NDM-1
Procedure: • Plate bacterial strain(s) on appropriate media: • Gram-negative bacteria with ESBLs or carbapenemases: green agar plates with 100 mg/L ampicillin • Gram-negative bacteria without β-lactamases: green agar plates • Gram-positive bacteria (Staphylococci and Enterococci): blood agar plates • Incubate o.n. at 37° C.
(Should be used within 15 min of preparation). • Dilute the 0.5 McFarland suspension 1:100 into MH broth. […] Plate 10 μl of the dilution on MH agar plates (×2). Incubate o.n. at 37° C., count the colonies and calculate the final CFU/ml inoculum in the plate by multiplying the average number of colonies with 10000 and divide by 2. The final inoculum should be between 3-7×10^5 CFU/ml. • Add 50 μl of the prepared bacterial suspension to each well in the microtiter plate except negative growth control.
• Calculate the desired concentration-range and volume of the compounds/antibiotics in the assay. […] Dilute the stock solution in MH broth. Make subsequent 2-fold dilutions in MH broth of the desired concentrations if a concentration range is to be tested (remember the extra dilution factor in the assay plate). Always include extra volume for pipetting. Take into consideration stock solutions that are made in buffers that have an effect on bacterial growth (e.g. DMSO).

[8] = Solution stability measured indirectly by MIC studies; type: physicochemical; details: stored up to 8 months at 2-8° C.; 25 mg/L inhibitor; P. aeruginosa VIM-2 and K. pneumonia NDM-1
Source text: P. aeruginosa harboring VIM-2 and K. pneumonia bearing NDM-1 was used as two indicator strains.

[9] = system: strains producing Klebsiella pneumoniae carbapenemases (KPC); assay: Adjuvant activity with a carbapenem against KPC producers; type: cell-based; details: adjuvant together with a carbapenem
[10] = system: K. pneumoniae harboring an MBL; assay: MIC of meropenem on strains harboring an MBL (Example 198); type: cell-based; details: K. pneumoniae (NDM); each table line a different strain
K. pneumoniae K66-45 = type: cell-based; details: inhibitor 25 mg/L
Procedure: After plating and grown overnight at 37° C., only single colonies, ignoring any touching the edges of the plate, were counted.
10^9 CFU K66-45 (Mueller-Hinton broth, no selection) was plated and grown overnight, 37° C. Only single colonies, ignoring any touching the edges of the plate, were counted.

[11] = system: C. freundii harboring an MBL; assay: MIC of meropenem on strains harboring an MBL (Example 198); type: cell-based; details: C. freundii (NDM)

In the case of `CN(C[C@H](O)[C@@H](O)[C@H](O)[C@H](O)CO)C(=O)c1ccc(CN(Cc2ccccn2)Cc2ccccn2)nc1` [Example 26, 6-((bis(pyridin-2-ylmethyl)amino)methyl)-N-methyl-N-((2S,3R,4R,5R)-2,3,4,5,6-pentahydroxyhexyl)nicotinamide], the “enzyme activity restored by ZnSO4” value (VIM-2; 15 nM impaired VIM-2 from Example 207C spiked with 0-100 μM ZnSO4) is reported as 40%, the “irreversibility of VIM-2 inhibition” value (VIM-2; purified VIM-2, PD-10 column, EDTA at 100 μM) is reported as “irreversibly inhibits VIM-2; also recorded: irreversibly inhibited” and the “potentiates carbapenems with a factor” value [1] is reported as 32-256 times. For the same compound, the “MIC meropenem + 25 mg/L Example 26 / Example 195” value [2] was 0.25 mg/L, the “reduction of the CFU levels compared to vehicle treatment” value ([3]; 10-100 mg/kg Example 26 alone, blood and peritoneal fluid) was “did not result in reduction of the CFU levels” and the Score at sampling ([3]; Example 26 10 mg/kg s.c. + meropenem 33 mg/kg, mice 5-8) was 2. It also gave a Score at sampling ([3]; Example 26 10 mg/kg s.c. + vehicle, mice 17-20) of 2, a Score at sampling ([3]; Example 26 33 mg/kg s.c. + meropenem 33 mg/kg, mice 9-12) of 1 and a Score at sampling ([3]; Example 26 33 mg/kg s.c. + vehicle, mice 21-24) of 1. The Score at sampling ([3]; Example 26 100 mg/kg s.c. + meropenem 33 mg/kg, mice 13-16) was 1, the Score at sampling ([3]; Example 26 100 mg/kg s.c. + vehicle, mice 25-28) was 1 and the “lower CFU levels compared to vehicle treatment” value ([3]; blood) was 3.95-4.38 log10. The “lower CFU levels compared to vehicle treatment” value ([3]; peritoneal fluid) was 3.57-3.66 log10, the “effect of protein binding on inhibitory activity on VIM-2” value [4] was “protein binding is not affecting the inhibitory activity” and the “amplification of the effect of meropenem” value [5] was greater than 1000 times. The “interaction with rH glyoxylase II” value (rH glyoxylase II) was “does not interact with rH glyoxylase II”, the “time after which CFU drops to below the limit of detection (LOD)” value [6] was 5 to 10 h and the “MIC Value in K66-45 (MIC of carbapenem)” value ([7]; doripenem (DOR) + 25 mg/L Example 26, batches 1-3) was 0.25 mg/L and 0.125 mg/L. For the same compound, the “MIC Value in K66-45 (MIC of carbapenem)” value ([7]; meropenem (MEM) + 25 mg/L Example 26, batches 1-3) was 0.125 mg/L and 0.25 mg/L, the “solution stability (adjuvant activity in MIC studies after storage)” value [8] was “no loss of activity even after 8 months storage time” and the “activity against KPC-producing strains” value [9] was “does not show activity”.
In the case of `C[C@@H](N)C(=O)N[C@H](C)C(=O)NCCc1ccc(NC(=O)c2ccc(CN(Cc3ccccn3)Cc3ccccn3)nc2)cc1` [Example 195, N-(4-(2-((R)-2-((R)-2-aminopropanamido)propanamido)ethyl)phenyl)-6-((bis(pyridin-2-ylmethyl)amino)methyl)nicotinamide hydrochloride, reference compound], the “MIC meropenem + 25 mg/L Example 26 / Example 195” value [2] is reported as 0.25 mg/L, the “MIC meropenem + 25 mg/L Example 26 / Example 195” value [10] is reported as 0.06 mg/L and the “RF - no of colonies” value (K. pneumoniae K66-45; MEM 2 mg/L) is reported as “nc (n.c. = no colonies)”. The “RF - no of colonies” value (K. pneumoniae K66-45; MEM 4 mg/L) was “nc (n.c. = no colonies)”, the “RF - no of colonies” value (K. pneumoniae K66-45; MEM 8 mg/L) was “nc (n.c. = no colonies)” and the “MIC meropenem + 25 mg/L Example 26 / Example 195” value [11] was 0.06 mg/L. The “solution stability (adjuvant activity in MIC studies after storage)” value [8] was “a loss of activity was observed after 5 months storage, and after 8 months the activity was absent”.
